Laboratory results as given in US20120201902A1, “ANTIMICROBIAL/PRESERVATIVE COMPOSITIONS COMPRISING BOTANICALS” (The Trustees of Columbia University in the City of New York, priority 2009, published 2012).

Tests used:
[1] = test system: C. albicans; assay: Preservative efficacy in cream (Method 1), C. albicans; type: cell-based, Candida albicans; conditions: for Efficacy (log10 reduction from control growth) C. albicans: Table 67
[2] = test system: Aspergillus niger; assay: Preservative efficacy in cream (Method 1), Aspergillus niger; type: cell-based; conditions: for efficacy of solvent added to GSE, lemongrass oil and lactic acid: against A. niger
[3] = test system: S. aureus; assay: In vitro rapid (15 seconds) antibacterial activity (Method A), S. aureus; type: cell-based
Procedure: Method A: 0.8 ml of a test solution was mixed with 0.1 ml of bacterial culture (10^8 cfu/ml) and 0.1 ml of bovine serum and vortexed for 15 seconds. 9 ml of drug neutralizing Fluid (DNF) was then added and serially diluted with DNF and plated on trypticase soy agar (TSA) plates. The plates were incubated for 24-48 hours at 37° C., and colony counts were determined. For a control, a gel base was used alone. The gel base (Base 26) contains 0.2% hydroxymethylpropyl cellulose and 0.2% polyquaternium10, and 0.5% 1,3 propanediol in water.
The present example evaluates rapid (15 seconds) antibacterial activity of various agents, alone and in combination, in an aqueous gel base (Base 26) using S. aureus as the test organism. One method of testing (Method A) uses 0.8 ml of the test solution mixed with 0.1 ml of bacterial culture (10^8 cfu/ml) and 0.1 ml of Bovine serum. The solution is vortexed for 15 seconds. 9.0 ml of drug neutralizing Fluid (DNF) is then added and then serially diluted with DNF and plated on TSA plates. Plates are incubated for 24-48 hours at 37° C. and colony counts were determined. For A control, the base was used alone.

[4] = test system: C. albicans; assay: Efficacy of antifungal creams in pig skin method (Method D), loosely and tightly adhered organism; type: cell-based, Candida albicans; conditions: conclusion of Example 31 (Methods C, D, E)
Procedure: Method D: Evaluation of efficacy in pig skin method (test organism C. albicans). […] At the end of incubation, DNF (drug neutralizing fluid) was added to each piece, mixed to remove the cream and loosely adhered bacteria on the skin. Loosely adhered organism: The fluid containing the cream was removed, serially diluted with DNF and aliquots plated on TSA and incubated for 24-48 hours and colonies were counted. Tightly adhered organism: DNF was added to the rinsed pigskin and sonicated for 20 minutes to remove the tightly adhered bacteria. The fluid after sonication was serially diluted, plated on TSA and, incubate for 24-48 hours and colony counts were determined.

[5] = test system: S. aureus; assay: In vitro rapid (15 seconds) efficacy of hand disinfectant soap (Method A with 10^9 organism); type: cell-based
Source text: The method of testing is same method as described above as Method A, however using 10^9 organism instead 10^8.

[6] = test system: S. aureus; assay: Synergistic antibacterial activity of benzyl alcohol and citrus fruit extract in proteinaceous media (1 minute); type: cell-based; conditions: 2.0 % w/w, media 50% TSB and 50% bovine serum
Procedure: Citrus fruit extract was obtained from PL Thomas (BiosecurF440D organic citrus fruit extract concentrate). The following concentrations of compounds were added to S. aureus culture (10^8 cfu/ml of media containing 50% TSB and 50% bovine serum). After 1 minute, drug neutralizing fluid (DNF) was added and mixed. The samples were then serially diluted with DNF and plated in TSA plate. The plates were incubated for 24-48 hours at 37° C. and colony counts were determined.

[7] = test system: S. aureus; conditions: erythromycin, gentamicin, vancomycin, ciproflaxin, clindamycin, tetracycline; cited from earlier work
[8] = test system: S. aureus; assay: In vitro rapid (15 second) efficacy of surface disinfectants; type: cell-based; conditions: surfactant base
Procedure: The following ingredients were added in a surfactant base containing water and alkyl polyglycoside surfactant (Glucopon) (Table 125).
Table 126 provides the dadta for an in vitro rapid (15 second) antibacterial efficacy of surface disinfectants against S. aureus.
The following ingredients were added in a surfactant base containing water and alkyl polyglycoside surfactant (Glucopon) (Table 127).
Table 128 provides the results from an in vitro rapid (15 second) antibacterial efficacy of surface disinfectants against S. aureus.

[9] = cited from earlier work
[10] = Table 107, 2.0 % w/w, 15 seconds
[11] = Table 106, 0.5 % w/w in Base 26, 15 seconds
[12] = Table 106, 2.0 % w/w in Base 26, 15 seconds
[13] = Table 106, 3.0 % w/w in Base 26, 15 seconds
[14] = Table 106, 0.2 % w/w in Base 26, 15 seconds

Compound: CCCCC(CC)COCC(O)CO (centres unmarked) [Sensiva, Octoxyglycerin]
- efficacy of solvent added to GSE, lemongrass oil and lactic acid ([1]; against C. albicans): effective against C. albicans
- efficacy of solvent added to GSE, lemongrass oil and lactic acid [2]: not against A. niger

Compound: O=C1O[C@H]([C@@H](O)CO)C(O)=C1O [ascorbic acid]
- synergistic activity of organic acids with benzyl alcohol [3]: not effective
- log10 reduction [3, 10]: 0.1 log10

Compound: Clc1ccc(COC(Cn2ccnc2)c2ccc(Cl)cc2Cl)c(Cl)c1 (centres unmarked) [miconazole]
- antifungal activity with synergistic combination of benzyl alcohol, fruit acid, biguanide and benzalkonium chloride [4]: significantly enhanced

Compound: benzalkonium chloride [reference compound]
- synergistic action with BPC (benzyl alcohol, propanediol, citric acid) [5]: synergistic action
- synergistic activity with benzyl alcohol and fruit acids ([3]; Base 26, 15 seconds): synergistic activity
- log10 reduction ([3]; Table 106, 0.1 % w/w in Base 26, 15 seconds): 2.7 log10

Compound: OCc1ccccc1 [Benzyl alcohol, benzyl alcohol]
- Efficacy (log10 reduction from control growth) C. albicans ([1]; 0.5 % w/w in cream): 1.0 log10
- Efficacy (log10 reduction from control growth) C. albicans ([1]; 1.0 % w/w in cream): 2.7 log10
- efficacy of solvent added to GSE, lemongrass oil and lactic acid ([1]; against C. albicans): higher efficacy
- synergistic activity with Zemea ([1]; higher concentrations of benzyl alcohol, against C. albicans): synergistic activity
- log10 reduction [3, 11]: 0.13 log10
- log10 reduction ([3]; Table 106, 1.0 % w/w in Base 26, 15 seconds): 0.14 log10
- log10 reduction [3, 12]: 0.18 log10
- log10 reduction [3, 13]: 0.2 log10
- log10 reduction [3, 10]: 0.12 log10
- synergistic activity with citric and lactic acid ([3]; benzyl alcohol at 1% and more than 1%, Base 26, 15 seconds): synergistic activity
- activity along with fruit acid without any botanical extracts ([3]; benzyl alcohol at higher concentrations, 15 seconds): effective
- Antibacterial activity against S. Aureus (10^8 CFU/ml) log10 reduction [6]: 0.1 log10
- synergistic activity with the combination of GSE, lemongrass oil, and lactic acid ([2]; Example 5, organism not given): synergistic activity
- Efficacy (log10 reduction from control growth) A. niger ([2]; Table 67, 0.5 % w/w in cream): 1.0 log10
- Efficacy (log10 reduction from control growth) A. niger ([2]; Table 67, 1.0 % w/w in cream): 1.9 log10
- efficacy of solvent added to GSE, lemongrass oil and lactic acid [2]: higher efficacy

Compound: CC(C)=CCC[C@](C)(O)C1CC=C(C)CC1 (some centres unmarked) [bisabolol]
- susceptibility of S. aureus to antibiotics [7]: enhanced the susceptibility

Compound: OCCCO [Zemea ®]
- Efficacy (log10 reduction from control growth) C. albicans ([1]; 0.5 % w/w in cream): 0.5 log10
- Efficacy (log10 reduction from control growth) A. niger ([2]; Table 67, 0.5 % w/w in cream): 0.85 log10

Compound: N=C(NCCCCCCNC(=N)NC(=N)Nc1ccc(Cl)cc1)NC(=N)Nc1ccc(Cl)cc1.O=C(O)[C@H](O)[C@@H](O)[C@H](O)[C@H](O)CO.O=C(O)[C@H](O)[C@@H](O)[C@H](O)[C@H](O)CO [Chlorhexidine gluconate]
- log10 reduction [3, 11]: 2.4 log10

Compound: C=CC(C)(O)CCC=C(C)CCC=C(C)C (centres unmarked) [nerolidol]
- susceptibility of S. aureus to antibiotics [7]: enhanced the susceptibility

Compound: CC(C)=CCC/C(C)=C/CC1CCCC1=O (centres unmarked) [apritone]
- susceptibility of S. aureus to antibiotics [7]: enhanced the susceptibility

Compound: OCc1ccccc1 [Preservative 2]
- Efficacy (log10 reduction from control growth) A. niger ([2]; Table 59, preservative in hydrophilic cream base, pH 4.5-5.0, benzyl alcohol (natural), GSE, Zemea, control growth 1 × 10^4-5 × 10^4): 0.98 log10

Compound: O=C(O)CC(O)(CC(=O)O)C(=O)O [Citric acid]
- log10 reduction [3, 14]: 0.1 log10

Compound: [H]/N=C(\N/C(=N/[H])NCCCCCCNC(=N)NC(=N)Nc1ccc(Cl)cc1)Nc1ccc(Cl)cc1 [chlorhexidine, reference compound]
- synergistic activity with benzyl alcohol and fruit acids ([3]; Base 26, 15 seconds): synergistic activity

Compound: CC(C)=CCCC(C)=CCCC(C)=CCO [farnesol]
- susceptibility of S. aureus to antibiotics [7]: enhanced the susceptibility

Compound: Oc1cc(Cl)ccc1Oc1ccc(Cl)cc1Cl [triclosan]
- synergistic action with BPC (benzyl alcohol, propanediol, citric acid) [5]: synergistic action

Compound: N=C(NCCCCCCNC(=N)NC(=N)Nc1ccc(Cl)cc1)NC(=N)Nc1ccc(Cl)cc1.O=C(O)[C@H](O)[C@@H](O)[C@H](O)[C@H](O)CO.O=C(O)[C@H](O)[C@@H](O)[C@H](O)[C@H](O)CO [Chlorhexidine gluconte]
- log10 reduction [3, 14]: 1.43 log10

Compound: OCCCO [1,3 propanediol]
- log10 reduction [3, 13]: 0.2 log10
- synergistic efficacy of benzyl alcohol and GSE, with and without 1,3 propanediol ([2]; 1-2% preservative in hydrophilic cream base, pH 4.5-5.0, tested against Aspergillus niger and C. albicans): enhances the activity

Compound: (polyiminoimidocarbonyliminoimidocarbonyl-iminohexamethylene)hydro-chloride [Vantocil]
- synergistic activity with benzyl alcohol and fruit acids [8]: synergistic activity
- synergistic activity with benzyl alcohol and lactic acid [8]: synergistic activity

Compound: zinc picolinate
- water solubility (in words) [9]: moderately water soluble

Compound: CC(O)C(=O)O (centres unmarked) [lactic acid]
- synergistic activity of organic acids with benzyl alcohol [3]: synergistic activity
- log10 reduction [3, 14]: 0.1 log10
- log10 reduction [3, 12]: 0.11 log10
- log10 reduction [3, 10]: 0.11 log10

Compound: O=C(O)c1ccccc1 [benzoic acid]
- synergistic activity of organic acids with benzyl alcohol [3]: synergistic activity
- log10 reduction [3, 10]: 0.1 log10
